In BindingDB's records for doi:10.1038/nchembio.1865 (University of British Columbia, 2015) one finds Ki data, which are given here for nine compounds.

The test addresses T1, Pancreatic alpha-amylase (Homo sapiens, UniProt P04746).
T1 sequence (P04746 whole entry): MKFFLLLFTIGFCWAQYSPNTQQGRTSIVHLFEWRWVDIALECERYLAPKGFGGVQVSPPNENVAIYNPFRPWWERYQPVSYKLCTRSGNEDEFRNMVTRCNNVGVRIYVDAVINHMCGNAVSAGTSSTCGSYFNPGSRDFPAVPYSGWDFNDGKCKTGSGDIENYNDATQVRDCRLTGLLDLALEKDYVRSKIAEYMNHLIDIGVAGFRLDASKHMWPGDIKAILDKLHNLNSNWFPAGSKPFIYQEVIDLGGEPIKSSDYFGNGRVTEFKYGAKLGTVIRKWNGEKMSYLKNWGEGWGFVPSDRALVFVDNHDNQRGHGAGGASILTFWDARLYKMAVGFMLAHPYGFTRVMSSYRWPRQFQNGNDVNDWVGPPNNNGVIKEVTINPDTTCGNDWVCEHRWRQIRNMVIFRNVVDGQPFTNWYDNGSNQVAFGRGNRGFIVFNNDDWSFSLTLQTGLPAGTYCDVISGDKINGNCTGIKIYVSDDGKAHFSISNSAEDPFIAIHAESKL
Nature of the test: Kinetic Studies. The note with it: 30 °C. The procedure: 2-Chloro-4-nitrophenyl α-d-maltotrioside (CNP-G3) was used as the substrate in a similar range of concentrations. Initial reaction rates for the release of chloronitrophenolate were measured and the further progress of substrate cleavage monitored continuously. Reactions were performed on a Varian Cary 4000 UV/Vis spectrophotometer at 400 nm and 30 °C.
`C[C@@H]1O[C@@H](O[C@@H]2CO[C@@H](Oc3c(O)cc(-c4oc5cc(O)cc(O)c5c(=O)c4O[C@@H]4O[C@@H](C)[C@H](O)[C@@H](O)[C@H]4O[C@@H]4O[C@H](COC(=O)/C=C/c5ccc(O)c(O)c5)[C@@H](O)[C@H](O)[C@H]4O)cc3O)[C@H](O)[C@H]2O)[C@H](O)[C@H](O)[C@H]1O` [MbA-G (1)] gave a Ki of 9.1 nM.
Next, `C[C@@H]1O[C@@H](O[C@@H]2CO[C@@H](Oc3c(O)cc(-c4oc5cc(O)cc(O)c5c(=O)c4O[C@@H]4O[C@@H](C)[C@H](O)[C@@H](O)[C@H]4O[C@@H]4O[C@H](CO)[C@@H](O)[C@H](O)[C@H]4O)cc3O)[C@H](O)[C@H]2O)[C@H](O)[C@H](O)[C@H]1O` [MbA-CG (7)]: 2240 nM; `C[C@@H]1O[C@@H](Oc2c(-c3cc(O)c(O[C@@H]4OC[C@@H](O)[C@H](O)[C@H]4O)c(O)c3)oc3cc(O)cc(O)c3c2=O)[C@H](O[C@@H]2O[C@H](CO)[C@@H](O)[C@H](O)[C@H]2O)[C@H](O)[C@H]1O` [MbA-CGR (9)]: 128000 nM; `C[C@@H]1O[C@@H](Oc2c(-c3cc(O)c(O)c(O)c3)oc3cc(O)cc(O)c3c2=O)[C@H](O[C@@H]2O[C@H](COC(=O)/C=C/c3ccc(O)c(O)c3)[C@@H](O)[C@H](O)[C@H]2O)[C@H](O)[C@H]1O` [mini-MbA]: 93.3 nM.
For the compound `O=C(/C=C/c1ccc(O)c(O)c1)NCc1cn(CCCCCCOc2c(-c3ccc(O)c(O)c3)oc3cc(O)cc(O)c3c2=O)nn1` [mini-MbA analog inhibitor 10], the inhibition constant Ki came out at 13900 nM.
To `C[C@@H]1O[C@@H](Oc2c(-c3cc(O)c(O[C@@H]4OC[C@@H](O)[C@H](O)[C@H]4O)c(O)c3)oc3cc(O)cc(O)c3c2=O)[C@H](O[C@@H]2O[C@H](COC(=O)/C=C/c3ccc(O)c(O)c3)[C@@H](O)[C@H](O)[C@H]2O)[C@H](O)[C@H]1O` [MbA-GR (4)] belongs 79.3 nM.
With `C[C@@H]1O[C@@H](Oc2c(-c3cc(O)c(O)c(O)c3)oc3cc(O)cc(O)c3c2=O)[C@H](O[C@@H]2O[C@H](COC(=O)/C=C/c3ccc(O)c(O)c3)[C@@H](O)[C@H](O)[C@H]2O[C@@H]2O[C@H](CO)[C@@H](O)[C@H](O)[C@H]2O)[C@H](O)[C@H]1O` [MbA-RX (3)], the affinity corresponds to a Ki of 42.4 nM.
Take `C[C@@H]1O[C@@H](O[C@@H]2CO[C@@H](Oc3c(O)cc(-c4oc5cc(O)cc(O)c5c(=O)c4O[C@@H]4O[C@@H](C)[C@H](O)[C@@H](O)[C@H]4O[C@@H]4O[C@H](CO)[C@@H](O)[C@H](O)[C@H]4O[C@@H]4O[C@H](CO)[C@@H](O)[C@H](O)[C@H]4O)cc3O)[C@H](O)[C@H]2O)[C@H](O)[C@H](O)[C@H]1O` [MbA-C (6)]: the Ki was determined as 730 nM.
Next, `C[C@@H]1O[C@@H](Oc2c(-c3cc(O)c(O[C@@H]4OC[C@@H](O)[C@H](O)[C@H]4O)c(O)c3)oc3cc(O)cc(O)c3c2=O)[C@H](O[C@@H]2O[C@H](CO)[C@@H](O)[C@H](O)[C@H]2O[C@@H]2O[C@H](CO)[C@@H](O)[C@H](O)[C@H]2O)[C@H](O)[C@H]1O` [MbA-CR (8)]: 46800 nM.
